Data as given in US20100056525A1, “5- AND 6- SUBSTITUTED BENZIMIDAZOLE THIOPHENE COMPOUNDS” (priority 2006, published 2010).

Key:
PLK1 kinase domain = target: T1, PLK1 kinase domain (Homo sapiens, UniProt P53350); assay: Assay for Inhibition of PLK1 (SPA, 33P-ATP); assay type: biochemical; settings: 2 nM PLK1 kinase domain, 1 μM ATP, 22° C.; read-out: PLK1 pIC50 (converted)
T1 construct: made in house; host or cells: baculovirus infected T. ni cells
Procedure: A. Preparation of 6× N-Terminal His-Tagged PLK Kinase Domain
All procedures were performed at 4° C. Cells were lysed in 50 mM HEPES, 200 mM NaCl, 50 mM imidazole, 5% glycerol; pH 7.5. The homogenate was centrifuged at 14K rpm in a SLA-1500 rotor for 1 hr and the supernatant filtered through a 1.2 micron filter. The supernatant was loaded onto a Nickel chelating Sepharose (Amersham Pharmacia) column and washed with lysis buffer. Protein was eluted using 20%, 30% and 100% buffer B steps where buffer B was 50 mM HEPES, 200 mM NaCl, 300 mM imidazole, 5% glycerol; pH 7.5. Fractions containing PLK were determined by SDS-PAGE. Fractions containing PLK were diluted five-fold with 50 mM HEPES, 1 mM DTT, 5% glycerol; pH 7.5, then loaded on an SP Sepharose (Amersham Pharmacia) column. After washing the column with 50 mM HEPES, 1 mM DTT, 5% glycerol; pH 7.5, PLK was step eluted with 50 mM HEPES, 1 mM DTT, 500 mM NaCl; 5% glycerol; pH 7.5. PLK was concentrated using a 10 kDa molecular weight cutoff membrane and then loaded onto a Superdex 200 gel filtration (Amersham Pharmacia) column equilibrated in 25 mM HEPES, 1 mM DTT, 500 mM NaCl, 5% glycerol; pH 7.5. Fractions containing PLK were determined by SDS-PAGE. PLK was pooled, aliquoted and stored at −80° C. Samples were quality controlled using mass spectrometry, N-terminal sequencing and amino acid analysis.
B. Enzyme Activity +/− Inhibitors was Determined as Follows:
All measurements were obtained under conditions where signal production increased linearly with time and enzyme. Test compounds were added to white 384-well assay plates (0.1 μL for 10 μL and some 20 μL assays, 1 μL for some 20 μL assays) at variable known concentrations in 100% DMSO. DMSO (1-5% final, as appropriate) and EDTA (65 mM in reaction) were used as controls.
Reaction Mix (10 or 20 μL) was quickly added to each well immediately following addition of enzyme via automated liquid handlers and incubated 1-1.5 h at 22° C. The 20 μL enzymatic reactions were stopped with 50 μL of stop mix (50 mM EDTA, 4.0 mg/mL Streptavidin SPA beads in Standard Dulbecco's PBS (without Mg^2+ and Ca^2+), 50 μM ATP) per well. The 10 μL reactions were stopped with 10 μL of stop mix (50 mM EDTA, 3.0 mg/mL Streptavidin-coupled SPA Imaging Beads (“LeadSeeker”) in Standard Dulbecco's PBS (without Mg^2+ and Ca^2+), 50 μM ATP) per well. Plates were sealed with clear plastic seals, spun at 500×g for 1 min or settled overnight, and counted in Packard TopCount for 30 seconds/well (regular SPA) or imaged using a Viewlux imager (LeadSeeker SPA). Signal above background (EDTA controls) was converted to percent inhibition relative to that obtained in control (DMSO-only) wells.

[1] = tested on: HCT-116 (human colon) cells; assay: Cell-Titer Glo Cell Growth Inhibition Assay; assay type: cell-based; settings: HCT-116 cells, 72 h incubation, CellTiter-Glo, read-out: HCT116 IC50
Procedure: A549-L (human lung), Colo 205 (human colon), HCT-116 (human colon), HT29 (human colon), MX-1 (human breast), SKOV3 (human ovary) and P388 (murine leukemia) cell lines were cultured in RPM11640 containing 10% fetal bovine serum at 37° C. in a 5% CO2 incubator. Cell lines were split into T75 flasks (Falcon #353136) two to three days prior to assay set up at density which yields approximately 70-80% confluency at time of harvest for assay. Cells were harvested using 0.25% trypsin with EDTA (Glibco/Invitrogen #25200-056), Cell counts were performed on cell suspensions using Trypan Blue exclusion staining, cells were then plated in 105 µL of culture media per well at the following densities in 96 well Costar #3916 black flat bottom plates: A549-L 500 cells/well, Colo205 500 cells/well, HCT-116 500 cells/well, HT29 500 cells/well, MX-1 500 cells/well, SKOV3 500 cells/well and P388 250 cells/well. All plates were placed at 5% CO2 37° C. overnight and then test compounds were added the following day. One plate of each cell type was treated with CellTiter-Glo (Promega #G7573) for a day 0 proliferation measurement and read as described below. The test compounds were prepared in clear U bottom polypropylene 96 well plates (Falcon #35-1190 with consecutive two fold dilutions. 9 uL of these dilutions was added into each well of the cell plates. The final concentration of DMSO in all wells was 0.15%. Cells were incubated at 37° C., 5% CO2 for 72 h. Following 72 h of incubation with compounds each plate was developed and read. CellTiter-Glo reagent was added to assay plates using a volume equivalent to the cell culture volume in the wells. Plates were shaken for approximately 2 min and incubated at rt for approximately 15 min and the chemiluminescent signal was read on the Victor V or Envison 2100 reader. […] Concentration of compound that inhibited 50% of cell growth (IC50) was analyzed by 4 or 6 parameter fit of data using XLfit, value of no cell addition was substracted from all samples for background.

T1 sequence (P53350 21-346): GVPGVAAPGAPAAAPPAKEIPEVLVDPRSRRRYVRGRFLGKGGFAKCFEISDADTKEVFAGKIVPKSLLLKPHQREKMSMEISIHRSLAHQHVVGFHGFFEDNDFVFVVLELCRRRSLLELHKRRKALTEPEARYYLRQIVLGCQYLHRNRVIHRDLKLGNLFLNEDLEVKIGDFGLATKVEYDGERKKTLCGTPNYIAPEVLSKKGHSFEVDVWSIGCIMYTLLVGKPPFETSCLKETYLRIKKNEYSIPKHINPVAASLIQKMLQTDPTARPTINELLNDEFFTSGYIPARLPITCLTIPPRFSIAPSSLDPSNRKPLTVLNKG

| IC50 (PLK1 kinase domain) | IC50 [1] | SMILES |
| --- | --- | --- |
| < 100 nM | < 500 nM | C[C@@H](Oc1cc(-n2cnc3cc(-c4ccc(NCCO)nc4)ccc32)sc1C(N)=O)c1ccccc1Cl [Example 28, 3-{[(1R)-1-(2-chlorophenyl)ethyl]oxy}-5-(5-[6-[(2-hydroxyethyl)amino]-3-pyridinyl]-1H-benzimidazol-1-yl)-2-thiophenecarboxamide] |
| < 100 nM | < 500 nM | C[C@@H](Oc1cc(-n2cnc3cc(-c4ccnc(NCCN(C)C)n4)ccc32)sc1C(N)=O)c1ccccc1C(F)(F)F [Example 16, 5-[5-(2-{[2-(Dimethylamino)ethyl]amino}pyrimidin-4-yl)-1H-benzimidazol-1-yl]-3-({(1R)-1-[2-(trifluoromethyl)phenyl]ethyl}oxy)thiophene-2-carboxamide] |
| < 100 nM | < 500 nM | C[C@@H](Oc1cc(-n2cnc3cc(-c4ccc(NC(=O)CN5CCOCC5)cc4)ccc32)sc1C(N)=O)c1ccccc1Cl [Example 24, 3-{[(1R)-1-(2-chlorophenyl)ethyl]oxy}-5-(5-[4-[(4-morpholinylacetyl)amino]phenyl]-1H-benzimidazol-1-yl)-2-thiophenecarboxamide] |
| < 100 nM | < 500 nM | C[C@@H](Oc1cc(-n2cnc3cc(-c4ccc(NCCN(C)C)nc4)ccc32)sc1C(N)=O)c1ccccc1C(F)(F)F [Example 25, 5-[5-(6-{[2-(dimethylamino)ethyl]amino}-3-pyridinyl)-1H-benzimidazol-1-yl]-3-({(1R)-1-[2-(trifluoromethyl)phenyl]ethyl}oxy)-2-thiophenecarboxamide] |
| < 100 nM | < 500 nM | C[C@@H](Oc1cc(-n2cnc3cc(-c4cccc(OCCN5CCCC5)c4)ccc32)sc1C(N)=O)c1ccccc1Cl [Example 23, 3-{[(1R)-1-(2-chlorophenyl)ethyl]oxy}-5-[5-(3-{[2-(1-Pyrrolidinyl)ethyl]oxy}phenyl)-1H-benzimidazol-1-yl]-2-thiophenecarboxamide] |
| < 100 nM | < 500 nM | C[C@@H](Oc1cc(-n2cnc3cc(-c4cnc(NCCN5CCOCC5)nc4)ccc32)sc1C(N)=O)c1ccccc1Cl [Example 22, 3-{[(1R)-1-(2-chlorophenyl)ethyl]oxy}-5-[5-(2-{[2-(4-morpholinyl)ethyl]amino}-5-pyrimidinyl)-1H-benzimidazol-1-yl]-2-thiophenecarboxamide] |
| < 100 nM | < 500 nM | C[C@@H](Oc1cc(-n2cnc3cc(-c4ccnc(NCCCN(C)C)c4)ccc32)sc1C(N)=O)c1ccccc1C(F)(F)F [Example 5, 5-[5-(2-{[3-(Dimethylamino)propyl]amino}-4-pyridinyl)-1H-benzimidazol-1-yl]-3-([(1R)-1-[2-(trifluoromethyl)phenyl]ethyl]oxy)-2-thiophenecarboxamide] |
| < 100 nM | 500 to 1000 nM | C[C@@H](Oc1cc(-n2cnc3cc(-c4ccc(NCCCN5CCN(C)CC5)nn4)ccc32)sc1C(N)=O)c1ccccc1Cl [Example 34, 3-{[(1R)-1-(2-chlorophenyl)ethyl]oxy}-5-[5-(6-{[3-(4-methyl-1-piperazinyl)propyl]amino}-3-pyridazinyl)-1H-benzimidazol-1-yl]-2-thiophenecarboxamide] |
| < 100 nM | < 500 nM | C[C@@H](Oc1cc(-n2cnc3cc(-c4ccnc(NCCCN5CCN(C)CC5)n4)ccc32)sc1C(N)=O)c1ccccc1Cl [Example 17, 3-{[(1R)-1-(2-chlorophenyl)ethyl]oxy}-5-[5-(2-{[3-(4-methyl-1-piperazinyl)propyl]amino}-4-pyrimidinyl)-1H-benzimidazol-1-yl]-2-thiophenecarboxamide] |
|  | < 500 nM | C[C@@H](Oc1cc(-n2cnc3cc(-c4ccnc(NCCO)c4)ccc32)sc1C(N)=O)c1ccccc1Cl [Example 14, 3-{[(1R)-1-(2-chlorophenyl)ethyl]oxy}-5-(5-{2-[(2-hydroxyethyl)amino]-4-pyridinyl}-1H-benzimidazol-1-yl)-2-thiophenecarboxamide] |
| < 100 nM | < 500 nM | C[C@@H](Oc1cc(-n2cnc3cc(-c4ccnc(NCCN(C)C)c4)ccc32)sc1C(N)=O)c1ccccc1Cl [Example 10, 3-{[(1R)-1-(2-chlorophenyl)ethyl]oxy}-5-[5-(2-{[2-(dimethylamino)ethyl]amino}-4-pyridinyl)-1H-benzimidazol-1-yl]-2-thiophenecarboxamide] |
| < 100 nM | < 500 nM | C[C@@H](Oc1cc(-n2cnc3cc(-c4cnc(NCCCN(C)C)nc4)ccc32)sc1C(N)=O)c1ccccc1Cl [Example 18, 3-{[(1R)-1-(2-Chlorophenyl)ethyl]oxy}-5-[5-(2-{[3-(dimethylamino)propyl]amino}-5-pyrimidinyl)-1H-benzimidazol-1-yl]-2-thiophenecarboxamide] |
| < 100 nM | < 500 nM | C[C@@H](Oc1cc(-n2cnc3cc(-c4ccc(N(C)CCN(C)C)nc4)ccc32)sc1C(N)=O)c1ccccc1Cl [Example 27, 3-{[(1R)-1-(2-chlorophenyl)ethyl]oxy}-5-(5-[6-[[2-(dimethylamino)ethyl](methyl)amino]-3-pyridinyl]-1H-benzimidazol-1-yl)-2-thiophenecarboxamide] |
| < 100 nM | < 500 nM | C[C@@H](Oc1cc(-n2cnc3cc(-c4ccc(NCCN(C)C)nc4)ccc32)sc1C(N)=O)c1ccccc1Cl [Example 30, 3-{[(1R)-1-(2-chlorophenyl)ethyl]oxy}-5-[5-(6-{[2-(dimethylamino)ethyl]amino}-3-pyridinyl)-1H-benzimidazol-1-yl]-2-thiophenecarboxamide] |
|  | < 500 nM | C[C@@H](Oc1cc(-n2cnc3cc(-c4ccnc(NCCN(C)C)c4)ccc32)sc1C(N)=O)c1ccccc1C(F)(F)F [Example 1, 5-[5-(2-{[2-(Dimethylamino)ethyl]amino}-4-pyridinyl)-1H-benzimidazol-1-yl]-3-({(1R)-1-[2-(trifluoromethyl)phenyl]ethyl}oxy)-2-thiophenecarboxamide] |
| < 100 nM | < 500 nM | C[C@@H](Oc1cc(-n2cnc3cc(-c4ccnc(NCCCN5CCN(C)CC5)c4)ccc32)sc1C(N)=O)c1ccccc1Cl [Example 11, 3-{[(1R)-1-(2-chlorophenyl)ethyl]oxy}-5-[5-(2-{[3-(4-methyl-1-piperazinyl)propyl]amino}-4-pyridinyl)-1H-benzimidazol-1-yl]-2-thiophenecarboxamide] |
| < 100 nM | < 500 nM | C[C@@H](Oc1cc(-n2cnc3cc(-c4ccnc(NCCN5CCOCC5)c4)ccc32)sc1C(N)=O)c1ccccc1Cl [Example 12, 3-{[(1R)-1-(2-chlorophenyl)ethyl]oxy}-5-[5-(2-{[2-(4-morpholinyl)ethyl]amino}-4-pyridinyl)-1H-benzimidazol-1-yl]-2-thiophenecarboxamide] |
